From patent US8524705B2, “2-oxo-2-(2-phenyl-5,6,7,8-tetrahydro-indolizin-3-yl)-acetamide derivatives and related compounds as antifungal agents” (F2G Limited British Body Corporate, priority 2007, dated 2013)
Converted amounts (≈) assume the structure as drawn.

Experiments:
Assay type in all cases: cell-based
Conditions in all cases: banded into grades
[1] = test system: Aspergillus fumigatus AF210; test: Measurement of Minimum Inhibitory Concentrations (MICs), A. fumigatus 210
Protocol: (§1) Between 1 and 5 mgs of compound were accurately weighed out into a sterile Eppendorf tube. The compound was dissolved in DMSO to give a solution containing 5 mg/mL. Tubes were stored at −20° C. until required. On the day of testing thawed solutions were vortex mixed to ensure homogeneity. 30 μL of solution was removed and added to 570 μL of sterile water in a separate sterile Eppendorf. The thoroughly mixed solution was used to prepare a series of doubling dilutions in water, in a deep well plate. […] replicate plates were prepared using a Minitrak by aspirating […] from each well into eleven clear polystyrene 96 well plates. Spores of Aspergillus spp. (Aspergillus fumigatus [two strains], Aspergillus terreus [two strains], Aspergillus niger and Aspergillus flavus) were harvested from cultures grown on Sabarauds agar for 5 days, and resuspended in PBS/Tween 80 to approx 1×10^7 cfu/mL. Each organism suspension was diluted in YAG medium (1% glucose, 1% ammonium chloride and 0.5% yeast extract) to 0.5-2×10^4 cfu/mL. 80 μL of an organism suspension was added to each well of the plate containing drug dilutions. This produced MIC plates with a drug range 50-0.05 mg/L and organism inocula of 1−2×10^4 cfu/mL for Aspergillus spp. All plates were incubated for 24 hrs at 35° C. Growth was assessed by monitoring the optical density at 485 nm for each well. The MIC of a compound is the lowest drug concentration that inhibits growth of an organism by >70% compared with a drug free control. MICs are recorded as mg/L. In cases where the MIC of an organism is >=0.05 mg/L the MIC is repeated using a concentration range of 0.5-0.0005 mg/L. Other growth media can be used for susceptibility testing, and the activity of the described compounds was also assessed in RPMI medium containing 2% glucose, and 0.135M MOPS buffer. MIC tests in YAG medium have more clear-cut endpoints and have slightly lower MICs than those performed in RPMI medium. The following organisms were tested: Aspergillus flavus, Aspergillus fumigatus AF293 and AF210, Aspergillus niger and Aspergillus terreus AT4 and AT49.

Aspergillus flavus = test: Measurement of Minimum Inhibitory Concentrations (MICs), A. flavus
Protocol: as §1

[2] = test system: Aspergillus fumigatus AF293; test: Measurement of Minimum Inhibitory Concentrations (MICs), A. fumigatus
Protocol: as §1

Aspergillus terreus AT49 = test: Measurement of Minimum Inhibitory Concentrations (MICs), A. terreus 49
Protocol: as §1

Aspergillus niger = test: Measurement of Minimum Inhibitory Concentrations (MICs), A. niger
Protocol: as §1

Aspergillus terreus AT4 = test: Measurement of Minimum Inhibitory Concentrations (MICs), A. terreus
Protocol: as §1

[3] = RPMI medium containing 2% glucose, 0.135M MOPS buffer
[4] = YAG medium, 24 hrs at 35° C., >70% growth inhibition

| MIC [1, 3] | MIC [1, 4] | MIC (Aspergillus flavus; [3]) | MIC (Aspergillus flavus; [4]) | MIC [2, 3] | MIC [2, 4] | MIC (Aspergillus terreus AT49; [3]) | MIC (Aspergillus terreus AT49; [4]) | MIC (Aspergillus niger; [3]) | MIC (Aspergillus niger; [4]) | MIC (Aspergillus terreus AT4; [3]) | MIC (Aspergillus terreus AT4; [4]) | SMILES |
| --- | --- | --- | --- | --- | --- | --- | --- | --- | --- | --- | --- | --- |
| < 1 µg/mL | < 1 µg/mL | < 1 µg/mL | < 1 µg/mL | < 1 µg/mL | < 1 µg/mL | < 1 µg/mL | < 1 µg/mL | < 1 µg/mL | < 1 µg/mL | < 1 µg/mL | < 1 µg/mL | CCc1cccc(N2CCN(c3ccc(NC(=O)C(=O)c4c(-c5ccccc5)cc5n4CCCC5)cc3)CC2)n1 [Example 15, N-{4-[4-(6-Ethyl-pyridin-2-yl)-piperazin-1-yl]-phenyl}-2-oxo-2-(2-phenyl-5,6,7,8-tetrahydro-indolizin-3-yl)-acetamide] |
| < 1 µg/mL | < 1 µg/mL | < 1 µg/mL | < 1 µg/mL | < 1 µg/mL | < 1 µg/mL | < 1 µg/mL | < 1 µg/mL | < 1 µg/mL | < 1 µg/mL | < 1 µg/mL | < 1 µg/mL | Cc1ccc(N2CCN(c3ccc(NC(=O)C(=O)c4c(-c5ccccc5)cc5n4CCCC5)cc3)CC2)nc1 [Example 16, N-{4-[4-(5-Methyl-pyridin-2-yl)-piperazin-1-yl]-phenyl}-2-oxo-2-(2-phenyl-5,6,7,8-tetrahydro-indolizin-3-yl)-acetamide] |
| < 1 µg/mL | < 1 µg/mL | < 1 µg/mL | < 1 µg/mL | < 1 µg/mL | < 1 µg/mL | < 1 µg/mL | < 1 µg/mL | < 1 µg/mL | < 1 µg/mL | < 1 µg/mL | < 1 µg/mL | CCc1ccnc(N2CCN(c3ccc(NC(=O)C(=O)c4c(-c5ccccc5)cc5n4CCCC5)cc3)CC2)c1 [Example 17, N-{4-[4-(4-Ethyl-pyridin-2-yl)-piperazin-1-yl]-phenyl}-2-oxo-2-(2-phenyl-5,6,7,8-tetrahydro-indolizin-3-yl)-acetamide] |
| < 1 µg/mL | < 1 µg/mL | < 1 µg/mL | < 1 µg/mL | < 1 µg/mL | < 1 µg/mL | < 1 µg/mL | < 1 µg/mL | < 1 µg/mL | < 1 µg/mL | < 1 µg/mL | < 1 µg/mL | O=C(Nc1ccc(N2CCN(c3ccc(CN4CCOCC4)cn3)CC2)cc1)C(=O)c1c(-c2ccccc2)cc2n1CCCC2 [Example 18, N-{4-[4-(5-Morpholin-4-ylmethyl-pyridin-2-yl)-piperazin-1-yl]-phenyl}-2-oxo-2-(2-phenyl-5,6,7,8-tetrahydro-indolizin-3-yl)-acetamide] |
| < 1 µg/mL | < 1 µg/mL | < 1 µg/mL | < 1 µg/mL | < 1 µg/mL | < 1 µg/mL | < 1 µg/mL | < 1 µg/mL | < 1 µg/mL | < 1 µg/mL | < 1 µg/mL | < 1 µg/mL | Cc1cc(C)nc(N(C)CCCN(C)c2ccc(NC(=O)C(=O)c3c(-c4ccccc4)cc4n3CCCC4)cc2)c1 [Example 19, N-[4-({3-[(4,6-Dimethyl-pyridin-2-yl)-methyl-amino]-propyl}-methyl-amino)-phenyl]-2-oxo-2-(2-phenyl-5,6,7,8-tetrahydro-indolizin-3-yl)-acetamide] |
| < 1 µg/mL | < 1 µg/mL | < 1 µg/mL | < 1 µg/mL | < 1 µg/mL | < 1 µg/mL | < 1 µg/mL | < 1 µg/mL | < 1 µg/mL | < 1 µg/mL | < 1 µg/mL | < 1 µg/mL | Cc1cc(C)nc(N2CCN(c3ccc(NC(=O)C(=O)c4c(-c5ccccc5)cc5n4CCCC5)c(C)c3)CC2)c1 [Example 20, N-{4-[4-(4,6-Dimethyl-pyridin-2-yl)-piperazin-1-yl]-2-methyl-phenyl}-2-oxo-2-(2-phenyl-5,6,7,8-tetrahydro-indolizin-3-yl)-acetamide] |
| < 1 µg/mL | < 1 µg/mL | < 1 µg/mL | < 1 µg/mL | < 1 µg/mL | < 1 µg/mL | < 1 µg/mL | < 1 µg/mL | < 1 µg/mL | < 1 µg/mL | < 1 µg/mL | < 1 µg/mL | Cc1cc(C)nc(N2CCC(O)(c3ccc(NC(=O)C(=O)c4c(-c5ccccc5)cc5n4CCCC5)cc3)CC2)c1 [Example 21, N-[4-(4-Hydroxy-4′,6′-dimethyl-3,4,5,6-tetrahydro-2H-[1,2′]bipyridinyl-4-yl)-phenyl]-2-oxo-2-(2-phenyl-5,6,7,8-tetrahydro-indolizin-3-yl)-acetamide] |
| < 1 µg/mL | < 1 µg/mL | < 1 µg/mL | < 1 µg/mL | < 1 µg/mL | < 1 µg/mL | < 1 µg/mL | < 1 µg/mL | < 1 µg/mL | < 1 µg/mL | < 1 µg/mL | < 1 µg/mL | Cc1cc(C)nc(N2CCN(c3ccc(NC(=O)C(=O)c4c(-c5ccccc5)cc5n4CCCC5)cc3C)CC2)c1 [Example 22, N-{4-[4-(4,6-Dimethyl-pyridin-2-yl)-piperazin-1-yl]-3-methyl-phenyl}-2-oxo-2-(2-phenyl-5,6,7,8-tetrahydro-indolizin-3-yl)-acetamide] |
| < 1 µg/mL | < 1 µg/mL | < 1 µg/mL | < 1 µg/mL | < 1 µg/mL | < 1 µg/mL | < 1 µg/mL | < 1 µg/mL | < 1 µg/mL | < 1 µg/mL | < 1 µg/mL | < 1 µg/mL | COCc1cc(NC(=O)C(=O)c2c(-c3ccccc3)cc3n2CCCC3)ccc1N1CCN(c2cc(C)cc(C)n2)CC1 [Example 23, N-{4-[4-(4,6-Dimethyl-pyridin-2-yl)-piperazin-1-yl]-3-methoxymethyl-phenyl}-2-oxo-2-(2-phenyl-5,6,7,8-tetrahydro-indolizin-3-yl)-acetamide] |
| 1 to 10 µg/mL (≈ 1.73 to 17.3 µM) | < 1 µg/mL | 1 to 10 µg/mL (≈ 1.73 to 17.3 µM) | < 1 µg/mL | 1 to 10 µg/mL (≈ 1.73 to 17.3 µM) | < 1 µg/mL | < 1 µg/mL | < 1 µg/mL | 1 to 10 µg/mL (≈ 1.73 to 17.3 µM) | < 1 µg/mL | < 1 µg/mL | < 1 µg/mL | COCc1cc(N2CCN(c3cc(C)cc(C)n3)CC2)ccc1NC(=O)C(=O)c1c(-c2ccccc2)cc2n1CCCC2 [Example 24, N-{4-[4-(4,6-Dimethyl-pyridin-2-yl)-piperazin-1-yl]-2-methoxymethyl-phenyl}-2-oxo-2-(2-phenyl-5,6,7,8-tetrahydro-indolizin-3-yl)-acetamide] |
| > 10 µg/mL | > 10 µg/mL | > 10 µg/mL | > 10 µg/mL | > 10 µg/mL | > 10 µg/mL | > 10 µg/mL | > 10 µg/mL | > 10 µg/mL | > 10 µg/mL | > 10 µg/mL | > 10 µg/mL | Cc1cc(C)nc(N2CCN(c3ccc(NC(=O)C(=O)c4c(-c5ccccc5)cc5n4CCCC5)cc3COCCCN3CCN(C)CC3)CC2)c1 [Example 25, N-{4-[4-(4,6-Dimethyl-pyridin-2-yl)-piperazin-1-yl]-3-[3-(4-methyl-piperazin-1-yl)-propoxymethyl]-phenyl}-2-oxo-2-(2-phenyl-5,6,7,8-tetrahydro-indolizin-3-yl)-acetamide] |
| > 10 µg/mL | > 10 µg/mL | > 10 µg/mL | 1 to 10 µg/mL (≈ 1.45 to 14.5 µM) | > 10 µg/mL | > 10 µg/mL | > 10 µg/mL | > 10 µg/mL | > 10 µg/mL | > 10 µg/mL | > 10 µg/mL | > 10 µg/mL | Cc1cc(C)nc(N2CCN(c3ccc(NC(=O)C(=O)c4c(-c5ccccc5)cc5n4CCCC5)cc3COCCCN3CCOCC3)CC2)c1 [Example 26, N-[4-[4-(4,6-Dimethyl-pyridin-2-yl)-piperazin-1-yl]-3-(3-morpholin-4-yl-propoxymethyl)-phenyl]-2-oxo-2-(2-phenyl-5,6,7,8-tetrahydro-indolizin-3-yl)-acetamide] |
| < 1 µg/mL | < 1 µg/mL | < 1 µg/mL | < 1 µg/mL | < 1 µg/mL | < 1 µg/mL | < 1 µg/mL | < 1 µg/mL | < 1 µg/mL | < 1 µg/mL | < 1 µg/mL | < 1 µg/mL | Cc1cc(C)nc(N2CCN(c3ccc(NC(=O)C(=O)c4c(-c5ccccc5)cc5n4CCCC5)cc3Cl)CC2)c1 [Example 27, N-{3-Chloro-4-[4-(4,6-dimethyl-pyridin-2-yl)-piperazin-1-yl]-phenyl}-2-oxo-2-(2-phenyl-5,6,7,8-tetrahydro-indolizin-3-yl)-acetamide] |
